From patent US20230406840A1, “N-(2-(3-CYANO-2-AZABICYCLO[3.1.0]HEXAN-2-YL)-2-OXOETHYL)QUINOLINE-4-CARBOXAMIDES” (AstraZeneca AB, priority 2022, published 2023)
Values after ≈ are worked out from the molar mass of the structure shown. Like-named read-outs stand apart in the source and are kept apart here.

Columns and labels:
[1] = biological target: Prolyl Oligopeptidase (hPREP) (Homo sapiens (Human), UniProt P48147); test: hPREP inhibition assay; assay type: biochemical; details: hPREP 0.6 nM, Z-Gly-Pro-amino-methylcoumarin 50 μM; read-out: PREP IC50
Chain of Prolyl Oligopeptidase (hPREP) (P48147 whole entry): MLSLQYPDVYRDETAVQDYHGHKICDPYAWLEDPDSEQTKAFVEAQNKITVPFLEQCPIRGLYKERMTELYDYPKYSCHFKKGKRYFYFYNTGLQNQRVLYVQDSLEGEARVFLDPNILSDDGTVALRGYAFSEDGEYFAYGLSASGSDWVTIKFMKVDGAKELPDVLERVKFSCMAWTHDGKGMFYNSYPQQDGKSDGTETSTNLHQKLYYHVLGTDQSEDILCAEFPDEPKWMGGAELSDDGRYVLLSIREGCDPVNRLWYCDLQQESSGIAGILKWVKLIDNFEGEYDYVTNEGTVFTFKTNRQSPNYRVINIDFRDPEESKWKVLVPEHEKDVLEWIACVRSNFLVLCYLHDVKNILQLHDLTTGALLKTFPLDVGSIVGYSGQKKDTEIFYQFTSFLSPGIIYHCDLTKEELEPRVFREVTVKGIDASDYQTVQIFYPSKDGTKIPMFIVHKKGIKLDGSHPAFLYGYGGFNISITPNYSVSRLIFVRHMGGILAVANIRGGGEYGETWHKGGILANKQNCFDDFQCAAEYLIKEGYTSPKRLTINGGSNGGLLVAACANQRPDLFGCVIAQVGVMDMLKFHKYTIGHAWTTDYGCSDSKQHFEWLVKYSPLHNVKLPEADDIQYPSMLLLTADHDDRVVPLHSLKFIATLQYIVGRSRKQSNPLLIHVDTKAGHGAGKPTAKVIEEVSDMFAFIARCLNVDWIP
Experimental: Compounds were tested in a biochemical inhibition assay using Prolyl endopeptidase, Prolyl Oligopeptidase (hPREP) enzyme at 0.6 nM FAC (R&D Systems, 4308-SE) and the substrate Z-Gly-Pro-amino-methylcoumarin (Bachem, I-1145) at 50 μM FAC. 384 Low volume black plates (Greiner #784076) were used. […] 4 μL, 100 μM substrate solution (25 mM Tris HCl, 250 mM NaCl, 0.01% Triton X-100, 5 mM Glutathione, pH 7.5) was added to each well. Plates were centrifuged at 1000 rpm and incubated for 20 min at rt in dark. […] Data were analyzed in Genedata Screener®.

Rat Hepatocytes (rHep) = test: Metabolic stability in rat hepatocytes (rHep); assay type: in vitro ADME
Experimental: Metabolic stability in rat hepatocytes was measured as described in J Comput Aided Mol Des 2015, 29, 795.

[2] = Metabolic stability in human liver microsomes (HLM); assay type: in vitro ADME
Experimental: Metabolic stability in HLM was measured as described in J Comput Aided Mol Des 2015, 29, 795.

Kinetic solubility = assay type: physicochemical
Experimental: Kinetic solubility was measured as described in Comput Aided Mol Des 2015, 29, 795.

Human Hepatocytes (hHep) = test: Metabolic stability in human hepatocytes (hHep); assay type: in vitro ADME
Experimental: Metabolic stability in human hepatocytes was measured as described in Xenobiotica 2010, 40, 637.

[3] = biological target: human Fibroblast activation protein alpha (hFAP) (Homo sapiens (Human), UniProt Q12884); test: hFAP inhibition assay (tight binders); assay type: biochemical; details: tight-binder format, Ala-Pro-AMC 20 μM, 2.5 h incubation; n = 1 or geometric mean (n = 5-10)
Chain of human Fibroblast activation protein alpha (hFAP) (Q12884 38-760): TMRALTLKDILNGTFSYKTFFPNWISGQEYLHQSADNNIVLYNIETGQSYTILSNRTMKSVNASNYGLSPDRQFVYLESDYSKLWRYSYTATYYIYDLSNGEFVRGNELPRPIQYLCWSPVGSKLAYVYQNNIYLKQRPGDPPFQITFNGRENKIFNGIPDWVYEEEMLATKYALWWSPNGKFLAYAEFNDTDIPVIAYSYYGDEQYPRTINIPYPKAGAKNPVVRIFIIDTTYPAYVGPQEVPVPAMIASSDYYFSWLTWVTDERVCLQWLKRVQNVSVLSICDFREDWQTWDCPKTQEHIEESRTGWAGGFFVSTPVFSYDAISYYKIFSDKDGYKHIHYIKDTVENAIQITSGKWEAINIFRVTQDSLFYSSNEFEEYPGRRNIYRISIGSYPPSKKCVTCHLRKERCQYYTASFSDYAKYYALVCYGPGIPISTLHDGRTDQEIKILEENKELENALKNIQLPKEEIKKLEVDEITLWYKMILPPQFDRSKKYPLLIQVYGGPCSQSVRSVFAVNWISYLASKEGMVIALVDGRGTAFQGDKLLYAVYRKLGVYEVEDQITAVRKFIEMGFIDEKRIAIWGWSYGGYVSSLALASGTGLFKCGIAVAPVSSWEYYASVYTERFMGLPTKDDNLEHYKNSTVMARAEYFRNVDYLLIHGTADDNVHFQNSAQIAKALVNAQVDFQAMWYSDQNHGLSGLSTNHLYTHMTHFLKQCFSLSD
Experimental: Data were analyzed in Genedata Screener®.

hFAP = hFAP (Homo sapiens (Human), UniProt Q12884);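 further: fluorescence read after incubating enzyme with substrate at room temperature, IC50 fitted from percent inhibition against log concentration with a one-site model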
Chain of hFAP (Q12884 38-760): as above
Experimental: Compounds were tested in a biochemical inhibition assay using hFAP enzyme at 0.24 nM FAC (Proteros, 38-760 (PR-0071)) and the substrate Ala-Pro-AMC (ARI-3144) at 20 μM FAC. 384 low volume black plates (Greiner #784076) were used. 4 μL, 0.48 nM enzyme solution (100 mM Tris HCl, 100 mM NaCl, 0.05% Chaps, pH 7.4) was added to 40 nL compounds (in DMSO) at 10 CR, 3-fold dilution series from 50 μM FAC. Plates were incubated for 15 min at rt in dark. 4 μL, 40 μM substrate solution (100 mM Tris HCl, 100 mM NaCl, 0.05% Chaps, pH 7.4) was added to each well. Plates were centrifuged at 1000 rpm and incubated for 30 min at rt in dark. The plates were read on a PHERAstar® reader with excitation 340 nm and emission 460 nm. Data were analyzed in Genedata Screener®. IC50 values were determined by plotting % inhibition versus log compound concentration and using a one site dose response model.

IC50 [1]	rHeps CLint (Rat Hepatocytes (rHep))	microsomal CLint [2]	solubility (Kinetic solubility; kinetic from dmso stock)	hHep CLint (Human Hepatocytes (hHep))	IC50 [3]	IC50 (hFAP)	solubility (Kinetic solubility)	Compound
> 50000 nM	<1 μL/min/1E6	< 3 µL/min/mg	> 1000 µM		0.91 nM	2.6 nM		CC(O)c1ccc2nccc(C(=O)NCC(=O)N3[C@H](C#N)C[C@@H]4C[C@@H]43)c2c1 (stereo partly drawn) [Example 14, N-(2-((1S,3S,5S)-3-Cyano-2-azabicyclo[3.1.0]hexan-2-yl)-2-oxoethyl)-6-(1-hydroxyethyl)quinoline-4-carboxamide]
> 50000 nM	9.4 μL/min/1E6	30 µL/min/mg	> 1000 µM	3.3 μL/min/1E6	1.1 nM	16 nM		COC(C)c1ccc2nccc(C(=O)NCC(=O)N3[C@H](C#N)C[C@@H]4C[C@@H]43)c2c1 (stereo partly drawn) [Example 15, N-(2-((1S,3S,5S)-3-Cyano-2-azabicyclo[3.1.0]hexan-2-yl)-2-oxoethyl)-6-(1-methoxyethyl)quinoline-4-carboxamide]
> 50000 nM	<1 μL/min/1E6	< 3 µL/min/mg	960 µM (≈ 350 µg/mL)		0.37 nM	< 1.8 nM		CC(O)c1ccc2c(C(=O)NCC(=O)N3[C@H](C#N)C[C@@H]4C[C@@H]43)ccnc2c1 (stereo partly drawn) [Example 25, N-(2-((1S,3S,5S)-3-Cyano-2-azabicyclo[3.1.0]hexan-2-yl)-2-oxoethyl)-7-(1-hydroxyethyl)quinoline-4-carboxamide]
> 50000 nM	<1 μL/min/1E6	< 3 µL/min/mg	> 1000 µM		0.7 nM	2.1 nM		CC(C)(O)c1ccc2c(C(=O)NCC(=O)N3[C@H](C#N)C[C@@H]4C[C@@H]43)ccnc2c1 [Example 26, N-(2-((1S,3S,5S)-3-Cyano-2-azabicyclo[3.1.0]hexan-2-yl)-2-oxoethyl)-7-(2-hydroxypropan-2-yl)quinoline-4-carboxamide]
> 50000 nM	16 μL/min/1E6	42 µL/min/mg	200 µM (≈ 86.5 µg/mL)		0.41 nM	3.1 nM		CC(OC(F)(F)F)c1ccc2c(C(=O)NCC(=O)N3[C@H](C#N)C[C@@H]4C[C@@H]43)ccnc2c1 (stereo partly drawn) [Example 30, N-(2-((1S,3S,5S)-3-Cyano-2-azabicyclo[3.1.0]hexan-2-yl)-2-oxoethyl)-7-(1-(trifluoromethoxy)ethyl)quinoline-4-carboxamide]
> 50000 nM	72 μL/min/1E6	46 µL/min/mg	37 µM (≈ 13.9 µg/mL)			2 nM		CC1(c2ccc3c(C(=O)NCC(=O)N4[C@H](C#N)C[C@@H]5C[C@@H]54)ccnc3c2)CC1 [Example 32, N-(2-((1S,3S,5S)-3-Cyano-2-azabicyclo[3.1.0]hexan-2-yl)-2-oxoethyl)-7-(1-methylcyclopropyl)quinoline-4-carboxamide]
	9.8 μL/min/1E6	170 µL/min/mg	700 µM (≈ 293 µg/mL)	25 μL/min/1E6		1.4 nM		N#C[C@@H]1C[C@@H]2C[C@@H]2N1C(=O)CNC(=O)c1ccnc2ccc(OCC(F)(F)F)cc12 [Example 33, N-(2-((1S,3S,5S)-3-Cyano-2-azabicyclo[3.1.0]hexan-2-yl)-2-oxoethyl)-6-(2,2,2-trifluoroethoxy)quinoline-4-carboxamide]
							590 µM (≈ 213 µg/mL)	N#C[C@@H]1C[C@@H]2C[C@@H]2N1C(=O)CNC(=O)c1ccnc2cc(C3CC3)ccc12 [Example 47, N-(2-((1S,3S,5S)-3-Cyano-2-azabicyclo[3.1.0]hexan-2-yl)-2-oxoethyl)-7-cyclopropylquinoline-4-carboxamide]

Continued, compound first:

Compound	IC50 [1]	rHeps CLint (Rat Hepatocytes (rHep))	microsomal CLint [2]	solubility (Kinetic solubility; kinetic from dmso stock)	hHep CLint (Human Hepatocytes (hHep))	IC50 [3]	IC50 (hFAP)	solubility (Kinetic solubility)
Cc1cc(C(=O)NCC(=O)N2[C@H](C#N)C[C@@H]3C[C@@H]32)c2cc(F)ccc2n1 [Example 4, N-(2-((1S,3S,5S)-3-Cyano-2-azabicyclo[3.1.0]hexan-2-yl)-2-oxoethyl)-6-fluoro-2-methylquinoline-4-carboxamide]	22000 nM	1.2 μL/min/1E6	< 3 µL/min/mg	> 1000 µM	<1 μL/min/1E6	32 nM	64 nM	
Cc1cc(C(=O)NCC(=O)N2[C@H](C#N)C[C@@H]3C[C@@H]32)c2cc(Cl)ccc2n1 [Example 5, 6-Chloro-N-(2-((1S,3S,5S)-3-cyano-2-azabicyclo[3.1.0]hexan-2-yl)-2-oxoethyl)-2-methylquinoline-4-carboxamide]	18000 nM	2.8 μL/min/1E6	11 µL/min/mg	140 µM (≈ 51.6 µg/mL)		18 nM	65 nM	
Cc1cc(C(=O)NCC(=O)N2[C@H](C#N)C[C@@H]3C[C@@H]32)c2cc(Br)ccc2n1 [Example 6, 6-Bromo-N-(2-((1S,3S,5S)-3-cyano-2-azabicyclo[3.1.0]hexan-2-yl)-2-oxoethyl)-2-methylquinoline-4-carboxamide]	13000 nM	5.8 μL/min/1E6	23 µL/min/mg	61 µM (≈ 25.2 µg/mL)		18 nM	58 nM	
Cc1cc(C(=O)NCC(=O)N2[C@H](C#N)C[C@@H]3C[C@@H]32)c2cc(I)ccc2n1 [Example 7, N-(2-((1S,3S,5S)-3-Cyano-2-azabicyclo[3.1.0]hexan-2-yl)-2-oxoethyl)-6-iodo-2-methylquinoline-4-carboxamide]	18000 nM	12 μL/min/1E6	43 µL/min/mg	23 µM (≈ 10.6 µg/mL)		15 nM	53 nM	
Cc1cc(C(=O)NCC(=O)N2[C@H](C#N)C[C@@H]3C[C@@H]32)c2ccc(F)cc2n1 [Example 8, N-(2-((1S,3S,5S)-3-Cyano-2-azabicyclo[3.1.0]hexan-2-yl)-2-oxoethyl)-7-fluoro-2-methylquinoline-4-carboxamide]	44000 nM	1.3 μL/min/1E6	< 3 µL/min/mg	890 µM (≈ 314 µg/mL)	<1 μL/min/1E6	20 nM	71 nM	
CC(C)(O)c1ccc2nccc(C(=O)NCC(=O)N3[C@H](C#N)C[C@@H]4C[C@@H]43)c2c1 [Example 13, N-(2-((1S,3S,5S)-3-Cyano-2-azabicyclo[3.1.0]hexan-2-yl)-2-oxoethyl)-6-(2-hydroxypropan-2-yl)quinoline-4-carboxamide]	> 50000 nM	2 μL/min/1E6	< 3 µL/min/mg	> 1000 µM	<1 μL/min/1E6	0.86 nM	3.8 nM	
CCc1ccc2nc(C)cc(C(=O)NCC(=O)N3[C@H](C#N)C[C@@H]4C[C@@H]43)c2c1 [Example 18, N-(2-((1S,3S,5S)-3-Cyano-2-azabicyclo[3.1.0]hexan-2-yl)-2-oxoethyl)-6-ethyl-2-methylquinoline-4-carboxamide]	> 50000 nM	18 μL/min/1E6	120 µL/min/mg	800 µM (≈ 290 µg/mL)		25 nM	80 nM	
Cc1ccc2nc(C)cc(C(=O)NCC(=O)N3[C@H](C#N)C[C@@H]4C[C@@H]43)c2c1 [Example 19, N-(2-((1S,3S,5S)-3-Cyano-2-azabicyclo[3.1.0]hexan-2-yl)-2-oxoethyl)-2,6-dimethylquinoline-4-carboxamide]	43000 nM	<1 μL/min/1E6	12 µL/min/mg	> 1000 µM		33 nM	80 nM	
N#C[C@@H]1C[C@@H]2C[C@@H]2N1C(=O)CNC(=O)c1ccnc2ccc(OC3CCC(F)(F)CC3)cc12 [Example 38, N-(2-((1S,3S,5S)-3-Cyano-2-azabicyclo[3.1.0]hexan-2-yl)-2-oxoethyl)-6-((4,4-difluorocyclohexyl)oxy)quinoline-4-carboxamide]	> 50000 nM	55 μL/min/1E6	190 µL/min/mg	430 µM (≈ 195 µg/mL)			1.3 nM	
CCOC1(c2ccc3c(C(=O)NCC(=O)N4[C@H](C#N)C[C@@H]5C[C@@H]54)ccnc3c2)CC1 [Example 39, N-(2-((1S,3S,5S)-3-Cyano-2-azabicyclo[3.1.0]hexan-2-yl)-2-oxoethyl)-7-(1-ethoxycyclopropyl)quinoline-4-carboxamide]	> 50000 nM	13 μL/min/1E6	77 µL/min/mg	960 µM (≈ 388 µg/mL)		0.41 nM	1.5 nM	
N#C[C@@H]1C[C@@H]2C[C@@H]2N1C(=O)CNC(=O)c1ccnc2ccc(C3CC3)cc12 [Example 42, N-(2-((1S,3S,5S)-3-Cyano-2-azabicyclo[3.1.0]hexan-2-yl)-2-oxoethyl)-6-cyclopropylquinoline-4-carboxamide]							5.6 nM	
N#C[C@@H]1CSCN1C(=O)CNC(=O)c1ccnc2ccccc12 [Reference Compound C, (R)-N-(2-(4-cyanothiazolidin-3-yl)-2-oxoethyl)-quinoline-4-carboxamide, reference compound]	7.1 nM							
